# Species: Rattus norvegicus
# Test: DrugMatrix - Regimen: Daily Repeat
# Assay type: toxicity, organism-based, Sprague-Dawley
# Parameters: regimen Daily Repeat, gender Male, age 6-8 weeks
# Details: in vivo, po, route oral GAVAGE, vehicle .5 % CMC; for BASOPHIL / EOSINOPHIL / ERYTHROCYTE COUNT / HEMATOCRIT / HEMOGLOBIN / LEUKOCYTE COUNT / LYMPHOCYTE / MEAN CORPUSCULAR HEMOGLOBIN / MEAN CORPUSCULAR HEMOGLOBIN CONCENTRATION / MEAN CORPUSCULAR VOLUME / MONOCYTE / NEUTROPHIL / PLATELET COUNT: tissue Blood; for ALANINE AMINOTRANSFERASE / ALBUMIN / ALKALINE PHOSPHATASE / ASPARTATE AMINOTRANSFERASE / BLOOD UREA NITROGEN / CHOLESTEROL / CREATINE PHOSPHOKINASE / CREATININE / GLUCOSE / PHOSPHORUS / POTASSIUM / SODIUM / TOTAL BILIRUBIN / TOTAL PROTEIN: tissue Plasma
# [1] = 0 mg/kg, 72 h, dose level Control, time 3 day
# [2] = 0 mg/kg, 120 h, dose level Control, time 5 day
# [3] = 45 mg/kg, 72 h, dose level High, time 3 day
# [4] = 45 mg/kg, 120 h, dose level High, time 5 day
# [5] = […], 72 h, dose 1.1 mg/Kg, dose level Low, time 3 day
# [6] = […], 120 h, dose 1.1 mg/Kg, dose level Low, time 5 day
smiles,measurement,setting,value
COc1cc(NC(C)CCCN)c2ncccc2c1 (configuration not stated) [PRIMAQUINE],BASOPHIL,[1],0%
same,EOSINOPHIL,[1],0%
same,ERYTHROCYTE COUNT,[1],6.19 x10E6/uL
same,HEMATOCRIT,[1],36.94%
same,HEMOGLOBIN,[1],14.58 G/DL
same,LEUKOCYTE COUNT,[1],11.54 x10E3/uL
same,LYMPHOCYTE,[1],84.8%
same,MEAN CORPUSCULAR HEMOGLOBIN,[1],23.58 pg
same,MEAN CORPUSCULAR HEMOGLOBIN CONCENTRATION,[1],39.44 G/DL
same,MEAN CORPUSCULAR VOLUME,[1],59.76 fL
same,MONOCYTE,[1],1.4%
same,NEUTROPHIL,[1],13.8%
same,PLATELET COUNT,[1],1068.8 x10E3/uL
same,ALANINE AMINOTRANSFERASE,[1],38.17 u/L
same,ALBUMIN,[1],3.88 G/DL
same,ALKALINE PHOSPHATASE,[1],391.33 u/L
same,ASPARTATE AMINOTRANSFERASE,[1],69.83 u/L
same,BLOOD UREA NITROGEN,[1],15 mg/dL
same,CHOLESTEROL,[1],72.17 mg/dL
same,CREATINE PHOSPHOKINASE,[1],174.33 u/L
same,CREATININE,[1],0.58 mg/dL
same,GLUCOSE,[1],192.67 mg/dL
same,PHOSPHORUS,[1],10.52 mg/dL
same,POTASSIUM,[1],6.8 MEQ/L
same,SODIUM,[1],149.67 MEQ/L
same,TOTAL BILIRUBIN,[1],0.78 mg/dL
same,TOTAL PROTEIN,[1],6.28 G/DL
same,BASOPHIL,[2],0%
same,EOSINOPHIL,[2],0.17%
same,ERYTHROCYTE COUNT,[2],6.72 x10E6/uL
same,HEMATOCRIT,[2],40.02%
same,HEMOGLOBIN,[2],15.83 G/DL
same,LEUKOCYTE COUNT,[2],9.5 x10E3/uL
same,LYMPHOCYTE,[2],87.17%
same,MEAN CORPUSCULAR HEMOGLOBIN,[2],23.57 pg
same,MEAN CORPUSCULAR HEMOGLOBIN CONCENTRATION,[2],39.62 G/DL
same,MEAN CORPUSCULAR VOLUME,[2],59.55 fL
same,MONOCYTE,[2],1.67%
same,NEUTROPHIL,[2],11%
same,PLATELET COUNT,[2],1053.67 x10E3/uL
same,ALANINE AMINOTRANSFERASE,[2],26.33 u/L
same,ALBUMIN,[2],4.02 G/DL
same,ALKALINE PHOSPHATASE,[2],316.67 u/L
same,ASPARTATE AMINOTRANSFERASE,[2],61.33 u/L
same,BLOOD UREA NITROGEN,[2],18.67 mg/dL
same,CHOLESTEROL,[2],65.17 mg/dL
same,CREATINE PHOSPHOKINASE,[2],161.17 u/L
same,CREATININE,[2],0.75 mg/dL
same,GLUCOSE,[2],177.33 mg/dL
same,PHOSPHORUS,[2],9.72 mg/dL
same,POTASSIUM,[2],6.18 MEQ/L
same,SODIUM,[2],150.5 MEQ/L
same,TOTAL BILIRUBIN,[2],0.68 mg/dL
same,TOTAL PROTEIN,[2],6.55 G/DL
same,BASOPHIL,[3],0%
same,EOSINOPHIL,[3],0.33%
same,ERYTHROCYTE COUNT,[3],6.7 x10E6/uL
same,HEMATOCRIT,[3],40.07%
same,HEMOGLOBIN,[3],15.73 G/DL
same,LEUKOCYTE COUNT,[3],10.6 x10E3/uL
same,LYMPHOCYTE,[3],76.67%
same,MEAN CORPUSCULAR HEMOGLOBIN,[3],23.53 pg
same,MEAN CORPUSCULAR HEMOGLOBIN CONCENTRATION,[3],39.3 G/DL
same,MEAN CORPUSCULAR VOLUME,[3],59.87 fL
same,MONOCYTE,[3],2.67%
same,NEUTROPHIL,[3],20.33%
same,PLATELET COUNT,[3],1053 x10E3/uL
same,ALANINE AMINOTRANSFERASE,[3],83.33 u/L
same,ALBUMIN,[3],3.73 G/DL
same,ALKALINE PHOSPHATASE,[3],304.67 u/L
same,ASPARTATE AMINOTRANSFERASE,[3],358.33 u/L
same,BLOOD UREA NITROGEN,[3],10 mg/dL
same,CHOLESTEROL,[3],77.67 mg/dL
same,CREATINE PHOSPHOKINASE,[3],213.33 u/L
same,CREATININE,[3],0.67 mg/dL
same,GLUCOSE,[3],176 mg/dL
same,PHOSPHORUS,[3],11.23 mg/dL
same,POTASSIUM,[3],6.27 MEQ/L
same,SODIUM,[3],148.33 MEQ/L
same,TOTAL BILIRUBIN,[3],0.4 mg/dL
same,TOTAL PROTEIN,[3],6.03 G/DL
same,BASOPHIL,[4],0%
same,EOSINOPHIL,[4],0%
same,ERYTHROCYTE COUNT,[4],5.75 x10E6/uL
same,HEMATOCRIT,[4],35.53%
same,HEMOGLOBIN,[4],14.07 G/DL
same,LEUKOCYTE COUNT,[4],13.03 x10E3/uL
same,LYMPHOCYTE,[4],79.67%
same,MEAN CORPUSCULAR HEMOGLOBIN,[4],24.47 pg
same,MEAN CORPUSCULAR HEMOGLOBIN CONCENTRATION,[4],39.6 G/DL
same,MEAN CORPUSCULAR VOLUME,[4],61.83 fL
same,MONOCYTE,[4],3.67%
same,NEUTROPHIL,[4],16.67%
same,PLATELET COUNT,[4],778.33 x10E3/uL
same,ALANINE AMINOTRANSFERASE,[4],35.67 u/L
same,ALBUMIN,[4],3.63 G/DL
same,ALKALINE PHOSPHATASE,[4],336.33 u/L
same,ASPARTATE AMINOTRANSFERASE,[4],78.67 u/L
same,BLOOD UREA NITROGEN,[4],12 mg/dL
same,CHOLESTEROL,[4],67.33 mg/dL
same,CREATINE PHOSPHOKINASE,[4],151.67 u/L
same,CREATININE,[4],0.57 mg/dL
same,GLUCOSE,[4],177 mg/dL
same,PHOSPHORUS,[4],10.23 mg/dL
same,POTASSIUM,[4],6.03 MEQ/L
same,SODIUM,[4],149 MEQ/L
same,TOTAL BILIRUBIN,[4],0.47 mg/dL
same,TOTAL PROTEIN,[4],5.83 G/DL
same,BASOPHIL,[5],0%
same,EOSINOPHIL,[5],1%
same,ERYTHROCYTE COUNT,[5],5.53 x10E6/uL
same,HEMATOCRIT,[5],33.77%
same,HEMOGLOBIN,[5],13.73 G/DL
same,LEUKOCYTE COUNT,[5],11.03 x10E3/uL
same,LYMPHOCYTE,[5],85%
same,MEAN CORPUSCULAR HEMOGLOBIN,[5],24.87 pg
same,MEAN CORPUSCULAR HEMOGLOBIN CONCENTRATION,[5],40.77 G/DL
same,MEAN CORPUSCULAR VOLUME,[5],61 fL
same,MONOCYTE,[5],2%
same,NEUTROPHIL,[5],12%
same,PLATELET COUNT,[5],1053.67 x10E3/uL
same,ALANINE AMINOTRANSFERASE,[5],32.33 u/L
same,ALBUMIN,[5],3.57 G/DL
same,ALKALINE PHOSPHATASE,[5],308 u/L
same,ASPARTATE AMINOTRANSFERASE,[5],56.33 u/L
same,BLOOD UREA NITROGEN,[5],11.67 mg/dL
same,CHOLESTEROL,[5],75.33 mg/dL
same,CREATINE PHOSPHOKINASE,[5],161.67 u/L
same,CREATININE,[5],0.6 mg/dL
same,GLUCOSE,[5],178 mg/dL
same,PHOSPHORUS,[5],11.23 mg/dL
same,POTASSIUM,[5],6.57 MEQ/L
same,SODIUM,[5],148 MEQ/L
same,TOTAL BILIRUBIN,[5],0.4 mg/dL
same,TOTAL PROTEIN,[5],5.63 G/DL
same,BASOPHIL,[6],0%
same,EOSINOPHIL,[6],0.33%
same,ERYTHROCYTE COUNT,[6],6.36 x10E6/uL
same,HEMATOCRIT,[6],37.73%
same,HEMOGLOBIN,[6],15.4 G/DL
same,LEUKOCYTE COUNT,[6],11.63 x10E3/uL
same,LYMPHOCYTE,[6],91.33%
same,MEAN CORPUSCULAR HEMOGLOBIN,[6],24.37 pg
same,MEAN CORPUSCULAR HEMOGLOBIN CONCENTRATION,[6],41 G/DL
same,MEAN CORPUSCULAR VOLUME,[6],59.37 fL
same,MONOCYTE,[6],1.33%
same,NEUTROPHIL,[6],7%
same,PLATELET COUNT,[6],1065 x10E3/uL
same,ALANINE AMINOTRANSFERASE,[6],27 u/L
same,ALBUMIN,[6],3.9 G/DL
same,ALKALINE PHOSPHATASE,[6],323 u/L
same,ASPARTATE AMINOTRANSFERASE,[6],65.67 u/L
same,BLOOD UREA NITROGEN,[6],15.33 mg/dL
same,CHOLESTEROL,[6],71 mg/dL
same,CREATINE PHOSPHOKINASE,[6],141.33 u/L
same,CREATININE,[6],0.6 mg/dL
same,GLUCOSE,[6],169.33 mg/dL
same,PHOSPHORUS,[6],10.37 mg/dL
same,POTASSIUM,[6],6.4 MEQ/L
same,SODIUM,[6],151.67 MEQ/L
same,TOTAL BILIRUBIN,[6],0.43 mg/dL
same,TOTAL PROTEIN,[6],6.23 G/DL
